Results as given in patent US20250250252A1, “PIPERIDINYLBENZONITRILE DERIVATIVES AS INHIBITORS OF GLUTAMINYL-PEPTIDE CYCLOTRANSFERASE AND GLUTAMINYL-PEPTIDE CYCLOTRANSFERASE LIKE PROTEIN” (Boehringer Ingelheim International GmbH, priority 2024, published 2025).
Values belong to the compound of their own block, whether it stands above or below them.

Columns and labels:
[1] = system: murine hepatocytes; assay: Assay E: Stability in murine hepatocytes; format: in vitro ADME, mouse; settings: 1 μM
Protocol: The metabolic degradation of the test compound is assayed in a murine hepatocyte suspension.
Murine hepatocytes (typically cryopreserved) are incubated in an appropriate buffer system (e.g. Dulbecco's modified eagle medium plus 3.5 μg glucagon/500 mL, 2.5 mg insulin/500 mL and 3.75 mg/500 mL hydrocortison) containing 5% species serum.
Following a (typically) 30 min preincubation in an incubator (37° C., 10% CO2) 5 μl of test compound solution (80 μM; from 2 mM in DMSO stock solution diluted 1:25 with medium) are added into 395 μl hepatocyte suspension (cell density in the range 0.25-5 Mio cells/mL, typically 1 Mio cells/mL; final concentration of test compound 1 μM, final DMSO concentration 0.05%).
The cells are incubated for six hours (incubator, orbital shaker) and samples (2 μl) are taken at 0, 0.5, 1, 2, 4 and 6 hours. Samples are transferred into acetonitrile and pelleted by centrifugation (5 min). The supernatant is transferred to a new 96-deepwell plate, evaporated under nitrogen and resuspended.
CLint is calculated as follows CL_[…]=Dose/AUC=(C0/CD)/(AUD+clast/k)×1000/60. C0: initial concentration in the incubation [μM], CD: cell density of vital cells [10e6cells/mL], AUD: area under the data [μM×h], clast: concentration of last data point [μM], k: slope of the regression line for parent decline [h−1].
The calculated in vitro hepatic intrinsic clearance can be scaled up to the intrinsic in vivo hepatic Clearance and used to predict hepatic in vivo blood clearance (CL) by the use of a liver model (well stirred model).
CL_[…]_INVIVO[ml/min/kg]=(CL_[…][μL/min/10e6cells]×hepatocellularity[10e6cells/g liver]×liver factor[g/kg bodyweight])/1000
CL[ml/min/kg]=CL_[…]_INVIVO[ml/min/kg]×hepatic blood flow[ml/min/kg]/(CL_[…]_INVIVO[ml/min/kg]+hepatic blood flow[ml/min/kg])
Hepatocellularity,mouse:120×10e6cells/g liver
Liver factor,mouse:55 g/kg bodyweight
Blood flow,mouse:90 ml/(min×kg)

[2] = system: SIRPα signalling induced by Raji cells; assay: Assay B: SIRPα signalling assay using Raji cells; format: cell-based; settings: Homo sapiens, read-out: Inhibition of SIRPα signalling induced by Raji cells: IC50
Protocol: Bioassay reagent 1 of the PathHunter Bioassay detection kit (DiscoverX 93-0001) was added to each well of the plate using a multichannel pipette followed by a 15 min incubation at room temperature. Afterwards bioassay reagent 2 was added followed by 60 min incubation at room temperature (incubation in the dark).
(§1) The analysis of the data was performed using the luminescence signal generated by betagalactosidase in the PathHunter reporter cell line. The luminescence measurement was done using a Pherastar Multi-Mode Reader.

[3] = target: QPCTL (Homo sapiens (Human), UniProt Q9NXS2); assay: Assay A: biochemical QPCTL activity assay (MALDI-TOF MS); settings: read-out: Inhibition of QPCTL: IC50
Protocol: (§2) QPCT or QPCTL dependent conversion of N-terminal glutamine to pyroglutamate of CD47 was monitored via MALDI-TOF MS. Test compounds were dissolved in 100% DMSO and serially diluted into clear 1,536-well microtiter plates. Enzymatic reactions were set up in assay buffer containing 20 mM Tris pH 7.5, 0.1 mM TCEP, 0.01% BSA, and 0.001% Tween20. […] The plates were incubated for 10 min in a humidified incubator at 24° C. Subsequently, 2.5 μL of CD47 peptide substrate surrogate (^19[…]^33) was added to each well (final concentration: 10 μM for QPCTL/20 μM for QPCT). The plates were mixed for 30 sec at 1,000 rpm and subsequently incubated for 40 min in a humidified incubator at 24° C. […] The plates were sealed with an adhesive foil, mixed for 30 s at 1,000 rpm and stored at room temperature until preparation of the MALDI target plates. […] QPCT or QPCTL activity was monitored by calculating the ratio between product and internal standard signals followed by normalization to high (100% activity) and low (0% activity) controls. Determination of compound potencies was obtained by fitting the dose-response data to a four-parameter logistical equation.

[4] = target: QPCT (Homo sapiens (Human), UniProt Q16769); assay: Assay A: biochemical QPCT activity assay (MALDI-TOF MS); settings: read-out: Inhibition of QPCT: IC50
Protocol: as §2

[5] = system: SIRPα signalling induced by A549 cells; assay: Assay B: SIRPα signalling assay using A549 cells; format: cell-based; settings: Homo sapiens, read-out: Inhibition of SIRPα signalling induced by A549 cells: IC50
Protocol: Two cell types are independently used: the Raji cell line (lymphoblast-like human cell line derived from B lymphocytes from a Burkitt's lymphoma patient in 1963) and A549 cells (adenocarcinomic human alveolar basal epithelial cells).
Test compounds were dissolved in 100% DMSO and serially diluted into a white 384-well microtiter cell culture plate (PerkinElmer #60076780 in case of Raji assay; PDL-coated plates Greiner #781945 in case of A549 assay). 5000 Raji cells (ATCC #CC86) or 5000 A549 cells (ATCC #CCL-185) in Assay Complete Cell Plating reagent 30 (DiscoverX 93-0563R30B) were added per well. The assay plate was incubated for 48 h at 37° C., 95% humidity and 5% CO2. 15000 reporter cells (Jurkat PathHunter SIRPαV1, DiscoverX #93-1135C19) were added to each well, and the plate was incubated for 5 h at 37° C., 95% humidity and 5% CO2. Bioassay reagent 1 of the PathHunter Bioassay detection kit (DiscoverX 93-0001) was added to each well of the plate using a multichannel pipette followed by a 15 min incubation at room temperature. Afterwards bioassay reagent 2 was added followed by 60 min incubation at room temperature (incubation in the dark).
as §1, with “Reader. Dose-response curves & IC50 data were calculated with 4-parameter sigmoidal dose response formula.” for “Reader.”

[6] = system: CYP3A4 mRNA; assay: Assay D: CYP induction screening assay in primary human hepatocytes; format: in vitro ADME; settings: 48 h
Protocol: Cryopreserved plateable human hepatocytes (single donor, BioIVT) were thawed and plated in Collagen-I coated 96-well-plates at a cell density of 0.07 million cells per well.
After a 6 h attachment period, the seeding medium was replaced by serum-free William's medium E supplemented with Matrigel (0.25 mg/ml) and allowed to recover overnight. 24 h post-seeding, serum-free Williams E medium containing the test compound at a final concentration of 10 μM and a final DMSO content of 0.1% and 0.1% DMSO (solvents treated control), respectively, was added to predefined wells. Exposure solutions were renewed after 24 h.
After 48 h of treatment in total, the effect of the test compounds on CYP3A4 mRNA expression was assessed using the QuantiGene Plex Gene Expression Assay. Hepatocytes were lysed and total RNA was extracted using the QuantiGene Sample Processing Kit according to the instructions of the manufacturer.
mRNA quantification was conducted using a customized QuantiGene Plex Panel to analyse CYP3A4 and the housekeeper genes RPL32, EIF4E2 and GUSB according to the instructions of the manufacturer and measured on a Luminex™ instrument. Signal was reported as median fluorescence intensity (MFI), which is proportional to the number of target RNA molecules present in the sample.
For calculation of CYP3A4 mRNA induction, the signal for CYP3A4 was normalized against the geometric mean of the signal obtained for the housekeeper genes for hepatocytes exposed to test compounds in relation to solvent-treated samples according to the following equation:
n-fold induction=(MFI CYP3A4 (treated)/Xgeo MFI (RPL32,EIF4E2,GUSB))/(MFI CYP3A4 (solvent control)/Xgeo MFI (RPL32,EIF4E2,GUSB))

[7] = Assay C: Permeability in CACO-2 cells; format: in vitro ADME; settings: human, Assay C; for efflux ratio: Caco-2, pH 7.2, permeability B-A/permeability A-B, read-out: Efflux Ratio; for Papp A→B: pH 7.2, CACO-2 cells
Protocol: Caco-2 cells (1-2×10^5 cells/1 cm^2 area) are seeded on filter inserts (Costar transwell polycarbonate or PET filters, 0.4 μm pore size) and cultured (DMEM) for 10 to 25 days. Compounds are dissolved in appropriate solvent (like DMSO, 1-20 mM stock solutions). […] The transport solution (TL) is applied to the apical or basolateral donor side for measuring A-B or B-A permeability (3 filter replicates), respectively. Samples are collected at the start and end of experiment from the donor and at various time intervals for up to 2 hours also from the receiver side for concentration measurement by HPLC-MS/MS or scintillation counting. Sampled receiver volumes are replaced with fresh receiver solution.
Efflux ratio (ER)=permeability B-A/permeability A-B

Chain of QPCT (Q16769 29-361): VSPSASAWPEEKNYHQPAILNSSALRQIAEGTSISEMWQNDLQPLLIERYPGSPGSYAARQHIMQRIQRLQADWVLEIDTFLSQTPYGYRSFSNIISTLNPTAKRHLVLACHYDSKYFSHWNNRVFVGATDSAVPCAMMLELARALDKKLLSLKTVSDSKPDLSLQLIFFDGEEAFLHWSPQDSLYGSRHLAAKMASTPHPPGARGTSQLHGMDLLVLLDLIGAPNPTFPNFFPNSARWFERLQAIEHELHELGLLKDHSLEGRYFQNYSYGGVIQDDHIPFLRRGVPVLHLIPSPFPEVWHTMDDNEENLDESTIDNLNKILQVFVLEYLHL
Chain of QPCTL (Q9NXS2 whole entry): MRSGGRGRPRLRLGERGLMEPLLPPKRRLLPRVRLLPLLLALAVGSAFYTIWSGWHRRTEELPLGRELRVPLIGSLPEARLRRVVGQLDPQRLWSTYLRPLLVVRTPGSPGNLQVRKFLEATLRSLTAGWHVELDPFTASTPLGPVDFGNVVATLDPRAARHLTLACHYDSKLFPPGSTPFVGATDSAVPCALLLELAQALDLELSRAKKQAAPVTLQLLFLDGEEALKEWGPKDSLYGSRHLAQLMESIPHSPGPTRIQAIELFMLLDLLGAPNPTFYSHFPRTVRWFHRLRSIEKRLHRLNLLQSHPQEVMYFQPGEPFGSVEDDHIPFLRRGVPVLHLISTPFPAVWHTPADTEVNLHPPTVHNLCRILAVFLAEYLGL

SMILES: Cn1cnnc1C1(F)CCN(c2c(C#N)cc(-c3cccnc3)cc2-c2ccc(F)nc2)CC1 [Example 6]
Mouse Hepatocyte Stability QH [1]: 35%
IC50 [2]: 139 nM
IC50 [3]: 3 nM
IC50 [4]: 4 nM
IC50 [5]: 33 nM
n-fold induction of CYP3A4 at 10 μM [6]: 1.8 n-fold
efflux ratio [7]: 4.6
Papp A→B [7]: 19 ×10⁻⁶ cm/s

SMILES: Cn1cnnc1C1(F)CCN(c2c(C#N)cc(-c3ccnnc3)cc2-c2ccc(F)nc2)CC1 [Example 8]
Mouse Hepatocyte Stability QH [1]: 20%
IC50 [2]: 267 nM
IC50 [3]: 2 nM
IC50 [4]: 3 nM
IC50 [5]: 651 nM
n-fold induction of CYP3A4 at 10 μM [6]: 0.9 n-fold
efflux ratio [7]: 20.3
Papp A→B [7]: 0.7 ×10⁻⁶ cm/s

SMILES: Cc1nn(C)cc1-c1cc(C#N)c(N2CCC(F)(c3nncn3C)CC2)c(-c2ccc(F)nc2)c1 [Example 4]
Mouse Hepatocyte Stability QH [1]: 21%
IC50 [2]: 90 nM
IC50 [3]: 2 nM
IC50 [4]: 3 nM
IC50 [5]: 26 nM
n-fold induction of CYP3A4 at 10 μM [6]: 2.0 n-fold
efflux ratio [7]: 8.8
Papp A→B [7]: 5 ×10⁻⁶ cm/s

SMILES: Cc1ncc(-c2cc(C#N)c(N3CCC(F)(c4nncn4C)CC3)c(-c3ccc(F)nc3)c2)cn1 [Example 7]
Mouse Hepatocyte Stability QH [1]: 48%
IC50 [2]: 100 nM
IC50 [3]: 3 nM
IC50 [4]: 4 nM
IC50 [5]: 37 nM
n-fold induction of CYP3A4 at 10 μM [6]: 0.7 n-fold
efflux ratio [7]: 7.9
Papp A→B [7]: 4.8 ×10⁻⁶ cm/s

Mouse Hepatocyte Stability QH [1]: 65%
IC50 [2]: 121 nM
IC50 [3]: 1 nM
IC50 [4]: 5 nM
IC50 [5]: 67 nM
n-fold induction of CYP3A4 at 10 μM [6]: 1.0 n-fold
efflux ratio [7]: 47.9
Papp A→B [7]: 0.5 ×10⁻⁶ cm/s
SMILES: Cn1cnnc1C1CCN(c2c(-c3ccc(F)nc3)ccc(-c3ccnc(N)c3)c2C#N)CC1 [Compound 44, reference compound]

Mouse Hepatocyte Stability QH [1]: 16%
IC50 [2]: 28 nM
IC50 [3]: 2 nM
IC50 [4]: 4 nM
IC50 [5]: 9 nM
n-fold induction of CYP3A4 at 10 μM [6]: 3.0 n-fold
efflux ratio [7]: 12.2
Papp A→B [7]: 4.9 ×10⁻⁶ cm/s
SMILES: Cn1cc(-c2ccc(-c3ccc(F)nc3)c(N3CCC(c4nncn4C)CC3)c2C#N)cn1 [Compound 35, reference compound]

SMILES: Cn1cc(-c2cc(C#N)c(N3CCC(F)(c4nncn4C)CC3)c(-c3ccc(F)nc3)c2)cn1 [Example 5]
Mouse Hepatocyte Stability QH [1]: <12%
IC50 [2]: 52 nM
IC50 [3]: 2 nM
IC50 [4]: 2 nM
IC50 [5]: 25 nM
n-fold induction of CYP3A4 at 10 μM [6]: 7.7 n-fold
efflux ratio [7]: 6.7
Papp A→B [7]: 5.4 ×10⁻⁶ cm/s

SMILES: Cc1nn(C)c(C)c1-c1cc(C#N)c(N2CCC(F)(c3nncn3C)CC2)c(-c2ccc(F)nc2)c1 [Example 3]
Mouse Hepatocyte Stability QH [1]: 25%
IC50 [2]: 330 nM
IC50 [3]: 4 nM
IC50 [4]: 5 nM
IC50 [5]: 45 nM
n-fold induction of CYP3A4 at 10 μM [6]: 1.7 n-fold
efflux ratio [7]: 7.8
Papp A→B [7]: 11 ×10⁻⁶ cm/s

SMILES: Cn1cnnc1C1(F)CCN(c2c(C#N)cc(-c3cnc(C(F)(F)F)nc3)cc2-c2ccc(F)nc2)CC1 [Example 9]
Mouse Hepatocyte Stability QH [1]: 20%
IC50 [2]: 108 nM
IC50 [3]: 3 nM
IC50 [4]: 6 nM
IC50 [5]: 67 nM
n-fold induction of CYP3A4 at 10 μM [6]: 1.4 n-fold
efflux ratio [7]: 5.2
Papp A→B [7]: 4.8 ×10⁻⁶ cm/s

SMILES: Cn1cnnc1C1(F)CCN(c2c(C#N)cc(C(C)(C)O)cc2-c2ccc(F)nc2)CC1 [Example 1]
Mouse Hepatocyte Stability QH [1]: 23%
IC50 [2]: 26 nM
IC50 [3]: 1 nM
IC50 [4]: 1 nM
IC50 [5]: 88 nM
n-fold induction of CYP3A4 at 10 μM [6]: 2.2 n-fold
efflux ratio [7]: 11.9
Papp A→B [7]: 4.2 ×10⁻⁶ cm/s

SMILES: Cc1ncc(-c2cc(C#N)c(N3CCC(F)(c4nncn4C)CC3)c(-c3ccc(F)nc3)c2)o1 [Example 2]
Mouse Hepatocyte Stability QH [1]: 15%
IC50 [2]: 180 nM
IC50 [3]: 2 nM
IC50 [4]: 4 nM
IC50 [5]: 36 nM
n-fold induction of CYP3A4 at 10 μM [6]: 1.6 n-fold
efflux ratio [7]: 3.3
Papp A→B [7]: 26 ×10⁻⁶ cm/s
